From article PMC11286589, “Population pharmacokinetics and exposure–response analyses of SAF-189s in Chinese patients with ALK+/ROS1+ non-small cell lung cancer” (Frontiers in Pharmacology, 2024)
Where two headings read alike, the source gives them in different places.

Key:
[1] = tested on: ALK+/ROS1+ advanced NSCLC; test: Phase I/II study (SAF001, NCT04237805): tumor response, IRC, RECIST 1.1; type: in vivo, human
Description: A first-in-human phase I/II study (NCT04237805) enrolled patients with advanced ALK+/ROS1+ NSCLC with or without asymptomatic CNS metastases. […] The population PK analysis included data from one phase I study of SAF-189s conducted with healthy subjects (study STL31147; n = 24) and one phase I/II study conducted with Chinese patients having ALK+/ROS1+ advanced NSCLC (study SAF001; n = 299). STL31147 was a single-center, randomized, open-label, two-period (fed and fasting), and two-sequence crossover study on healthy Chinese adults. The volunteers received SAF-189s at a dose of 160 mg orally once in each period, with a washout period of 14 days. Blood samples (3 mL) were collected after each SAF-189s administration at 0 (predose), 1, 2, 3, 4, 6, 8, 10, 12, 24, 48, 72, 120, and 168 h post dosing. SAF001 was a multicenter, open-label, and single-arm phase I/II study to evaluate the safety, tolerability, pharmacokinetics, and antitumor activity of SAF-189s in patients with advanced ALK+ NSCLC (phase I) and ALK+/ROS1+ NSCLC (phase II). In the dose escalation portion, the study treatment included a single-agent 3-day PK run-in period and a continuous treatment period. The dosing regimens were 20, 40, 80, 120, 160, and 210 mg QD for 21 days in 21-day cycles during the continuous treatment period. In phase II, the patients received 80, 120, 160, and 210 mg of SAF-189s (phase IIa) or 160 mg (phase IIb) QD over 21-day cycles. All studies were conducted in accordance with the Good Clinical Practice guidelines and Declaration of Helsinki. The protocols were approved by the independent ethics committee of each investigation site, and all subjects provided informed consent. The tumor responses were assessed by the IRC based on the Response Evaluation Criteria in Solid Tumors (RECIST) 1.1 conditions. The exposure–efficacy analyses of SAF-189s were conducted based on data from patients in the SAF001 study to explore the relationships between systemic exposure and efficacy endpoints, including the ORR, PFS, and duration of response (DOR). The exposure–safety analyses of SAF-189s were conducted based on data from patients in the SAF001 study to explore the relationships between the systemic exposure and safety endpoints, including the adverse events (AEs) of interest. In these studies, the SAF-189s plasma concentrations were analyzed using validated liquid chromatography tandem mass spectrometry within the assay range of 0.5–150 ng mL^–1.

[2] = parameters: method as in Qin et al., 2023; conditions: ref Qin et al., 2023, cited from earlier work
[3] = tested on: ALK+/ROS1+ advanced NSCLC; conditions: ref Yang et al., cited from earlier work; for ORR: phase II, 2022a
[4] = tested on: efflux transporter P-gp; conditions: in vitro studies, no reference given; cited from earlier work
[5] = tested on: CYP3A; conditions: no reference given; cited from earlier work
[6] = no reference given, cited from earlier work
[7] = tested on: tumor xenograft models derived from genetically engineered cells overexpressing ALK rearrangements, ROS1+ rearrangements, or crizotinib-resistant ALK and ROS1 …; parameters: method as in Xia et al., 2021; conditions: tumor xenograft and CNS tumor models; ref Xia et al., 2021; cited from earlier work
[8] = high-fat meal vs fasted, single dose 160 mg
[9] = single dose 160 mg, unaffected by food
[10] = ROS1-naive patients, phase IIa, 2022b

Cc1cc(Nc2ncc(Cl)c(Nc3ccccc3S(=O)(=O)C(C)C)n2)c2c(c1C1CCN(C)CC1)C[C@@H](C)O2 [SAF-189s]
ORR ([1]; 160-mg dose group, ROS1+ treatment-naive patients (n = 59)): 89.83% | ORR ([1]; ALK+ and ROS1+ patients (n = 244)): 78.69% | ORR ([1]; ROS1+ treatment-naive subgroup (n = 68)): 91.18% | ORR ([1]; ROS1+ treatment-resistant patients (n = 32)): 40.62% | intersubject variability AUC0-t ([2]; fasted): 33.8% | intersubject variability AUC0-∞ ([2]; fasted): 34.6% | intersubject variability Cmax ([2]; fasted): 23.0% | intersubject variability AUC0-t ([2]; fed): 31.3% | intersubject variability AUC0-∞ ([2]; fed): 32.8% | intersubject variability Cmax ([2]; fed): 19.7% | geometric mean ratio AUC0-t [2, 8]: 105.1% | geometric mean ratio Cmax [2, 8]: 109.1% | Tmax (median) [2, 9]: 6 h | t½ (mean) [2, 9]: around 35 h | IRC-assessed ORR [3, 10]: 94.1% | median progression-free survival (PFS) [3, 10]: 16.5 months | ORR ([3]; ALK+ patients with brain metastases): 74.6% | ORR ([3]; ALK-inhibitor-naive patients): 92.3% | ORR ([3]; crizotinib-pretreated group): 65.4% | ORR ([3]; overall ALK+ patients): 78.7% | IRC-assessed ORR ([3]; phase IIb, ROS1-naive, brain metastases subgroup, 2022b): 85.7% | IRC-assessed ORR ([3]; phase IIb, overall ROS1-naive patients, 2022b): 80.4% | P-gp inhibitor [4]: inhibitor | P-gp substrate [4]: substrate | CYP3A substrate [5]: substrate of CYP3A | permeability ([6]; BCS classification): low permeability | solubility ([6]; BCS classification): low solubility | BCS class [6]: BCS IV | antitumor effects [7]: Strong antitumor effects
